In patent EP3494850B1, “WET WIPE WITH HYDROXYACETOPHENON” (Dr. Schumacher GmbH, priority 2017, dated 2019):

Tested on: Haut der Probanden
Assay: Patch test for skin tolerance on 50 subjects
Assay type: in vivo
Conditions: 48 h under occlusion on the back, read at 48 h and 72 h (erythema, scaling, fissures)
Text: Zur Prüfung der Hautverträglichkeit des Tränkungsmittels, mit dem erfindungsgemäße Feuchttücher getränkt sind, wird ein Patch-Test an 50 Probanden durchgeführt. Mit einem Patch-Test können dermatologische und kosmetische Produkte auf ihr irritatives Potential untersucht werden. Bei den 50 ausgewählten Personen im Alter zwischen 18 und 69 Jahren handelte es sich um 28 Hautgesunde, 2 Atopiker, 2 Allergiker und 18 Personen mit empfindlicher Haut.
Für den Patch-Test wurde eine gemäß der in Tabelle 1 (Beispiel 1) angegebenen Rahmenrezeptur zusammengesetzte O/W-Emulsion für 48 Stunden unverdünnt auf den Rücken der Probanden mit Hilfe von quadratischen Kunststoffkammern (allergEAZE® clear Patch Test Chambers; SmartPractice®, Phoenix, AZ) unter Okklusion appliziert. Als Positivkontrolle diente der Modellschadstoff Natriumlaurylsulfat (SDS) in einer Konzentration von 1 % in Wasser. Als negative Kontrolle diente Wasser.
Die Bewertung der Testreaktionen erfolgte nach 48 Stunden (30 Minuten nach der Entfernung der Okklusion) sowie nach 72 Stunden, wobei die Haut der Probanden jeweils hinsichtlich Erythem, Schuppung und Fissuren untersucht wurde.

Question: How did the “Testpersonen mit Reaktion im Patch-Test” value turn out when `CCCCCCCCCCCCOS(=O)(=O)O` [SDS, Natriumlaurylsulfat] was run?
Answer: 14 Testpersonen
